Patent US20260265190A1, “AROMATIC COMPOUNDS FOR USE AS PROTEIN PHOSPHATASE 2A (PP2A) MODULATORS” (RAPPTA THERAPEUTICS OY, priority 2022, published 2026)

Each molecule was assayed on HCC1937 cells (assay: Cell viability assay (MTS), HCC1937 cell line). Conditions: Homo sapiens, HCC1937 cell line (footnote a), 48 hours.
Type: cell-based
Procedure: HCC1937 cells are plated in a 96 well plate format at a density of 10,000 cells per well. After incubation overnight, cells are treated with a compound (e.g., compound 5) at the following concentrations: 80, 40, 20, 10, 5, 2.5, 1.25 μM. Compound concentrations are prepared in RPMI via serial dilutions from a starting stock of 80 mM. Forty-eight (48) hours after compound treatment, cell viability is assessed using the Promega CellTiter 96 aqueous one proliferation assay (Promega G3582, MTS assay) according to manufacturer's protocol.
(§1) The cell viability data was analyzed with GraphPad Prism software. The values were log transformed and analyzed with non-linear regression (curve-fit) using log (inhibitor) vs. response—variable slope (four parameters) and constraining the bottom to equal zero. Unless otherwise indicated, the GI50 values provided in Table 1 correspond to the LNCaP cell viability assays.
With CC(C)Oc1ccc(S(=O)(=O)NC2(c3ccc(Cl)cn3)CCNCC2)cn1 [Example 5, N-(4-(5-chloropyridin-2-yl)piperidin-4-yl)-6-isopropoxypyridine-3-sulfonamide] the GI50 was 51.4 µM. CC(C)Oc1ccc(S(=O)(=O)NC(CN2CCNCC2)c2ccc(F)c(F)c2)cn1 (stereo not shown) [Example 24, N-(1-(3,4-difluorophenyl)-2-(piperazin-1-yl)ethyl)-6-isopropoxypyridine-3-sulfonamide] was tested, and the GI50 was 27 µM. CC(C)Oc1ccc(S(=O)(=O)N[C@@H](c2ccccc2)C2CCNCC2)cn1 [Example 18, (R)-6-isopropoxy-N-(phenyl(piperidin-4-yl)methyl)pyridine-3-sulfonamide] gave a GI50 of 74.3 µM. In the case of O=S(=O)(N[C@@H](CN1CCNCC1)c1ccc(Cl)cc1)c1ccccc1 [Example 25, (R)-N-(1-(4-chlorophenyl)-2-(piperazin-1-yl)ethyl)benzenesulfonamide], the GI50 is reported as 40.6 µM. With CC(C)Oc1ccc(S(=O)(=O)N[C@H](c2ccccc2)C2CCNCC2)cn1 [Example 19, (S)-6-isopropoxy-N-(phenyl(piperidin-4-yl)methyl)pyridine-3-sulfonamide] the GI50 was 74.5 µM.

The molecules below were run on LNCaP cells (assay: Cell viability assay (MTS), LNCaP cell line). Conditions: Homo sapiens, 48 hours.
Type: cell-based
Procedure: LNCaP cell line was used for the cell viability assay. LNCaP cells were plated in 96-well plates at a density of 5000 cells per well. After 24 hours of plating, the cells were treated with increasing doses of compound (e.g., compounds 1-38) ranging from 1 μM to 80 μM. Relative cell numbers were analyzed after 48 hours using 3-(4,5-dimethylthiazol-2-yl)-5-(3-carboxymethoxyphenyl)-2-(4-sulfophenyl)-2H-tetrazolium (MTS) assay (Promega) according to the manufacturer's instructions.
as §1
Molecule O=S(=O)(N[C@H](c1ccccc1)C1CCNCC1)c1ccc(OC(F)(F)F)cc1 [Example 12, (S)-N-(phenyl(piperidin-4-yl)methyl)-4-(trifluoromethoxy)benzenesulfonamide] has a GI50 of 27.1 µM. O=S(=O)(NC1(c2ccccc2)CCC2(CC2)NC1)c1ccc(OC(F)(F)F)cc1 (stereo not shown) [Example 6, N-(6-phenyl-4-azaspiro[2.5]octan-6-yl)-4-(trifluoromethoxy)benzenesulfonamide] gave a GI50 of 57.5 µM. Molecule CC(C)Oc1ccc(S(=O)(=O)NC(CN2CCNCC2)c2ccc(Cl)cc2)cn1 (stereo not shown) [Example 22, N-(1-(4-chlorophenyl)-2-(piperazin-1-yl)ethyl)-6-isopropoxypyridine-3-sulfonamide] has a GI50 of 51.1 µM. In the case of O=S(=O)(NC(CN1CCNCC1)c1ccc(F)cc1F)c1ccc(OC(F)(F)F)cc1 (stereo not shown) [Example 20, N-(1-(2,4-difluorophenyl)-2-(piperazin-1-yl)ethyl)-4-(trifluoromethoxy)benzenesulfonamide], the GI50 is reported as 27.1 µM. With O=S(=O)(NC1(c2ccc(F)c(F)c2)CCNC1)c1ccc(OC(F)(F)F)cc1 (stereo not shown) [Example 1, N-(3-(3,4-difluorophenyl)pyrrolidin-3-yl)-4-(trifluoromethoxy)benzenesulfonamide] the GI50 was 25.7 µM. With O=S(=O)(N[C@H](c1ccc(Cl)cc1)C1CCNCC1)c1ccc(OC(F)(F)F)cc1 [Example 14, (S)-N-((4-chlorophenyl)(piperidin-4-yl)methyl)-4-(trifluoromethoxy)benzenesulfonamide] the GI50 was 11.3 µM. Work on Cc1cc(C2(NS(=O)(=O)c3ccc(OC(F)(F)F)cc3)CCNCC2)ccc1Cl [Example 4, N-(4-(4-chloro-3-methylphenyl)piperidin-4-yl)-4-(trifluoromethoxy)benzenesulfonamide] yielded a GI50 of 6.76 µM. Molecule CN(C)CC(c1ccc(Cl)c(Cl)c1)n1cnc(-c2ccc(OC(F)(F)F)cc2)c1 (stereo not shown) [Example 35, 2-(3,4-dichlorophenyl)-N,N-dimethyl-2-(4-(4-(trifluoromethoxy)phenyl)-1H-imidazol-1-yl)ethan-1-amine] has a GI50 of 20.4 µM. In the case of CC(C)Oc1ccc(S(=O)(=O)NC(c2cc(Cl)cc(Cl)c2)C2CCCCC2)cn1 (stereo not shown) [Example 30, N-(cyclohexyl(3,5-dichlorophenyl)methyl)-6-isopropoxypyridine-3-sulfonamide], the GI50 is reported as 22.8 µM. In the case of O=S(=O)(NC(CN1CCNCC1)c1ccc(F)c(F)c1)c1ccc(OC(F)(F)F)cc1 (stereo not shown) [Example 21, N-(1-(3,4-difluorophenyl)-2-(piperazin-1-yl)ethyl)-4-(trifluoromethoxy)benzenesulfonamide], the GI50 is reported as 33.8 µM. O=S(=O)(N[C@@H](c1ccccc1)C1CCNCC1)c1ccc(OC(F)(F)F)cc1 [Example 11, (R)-N-(phenyl(piperidin-4-yl)methyl)-4-(trifluoromethoxy)benzenesulfonamide] was tested, and the GI50 was 24.7 µM. Work on CN(C)CC(NS(=O)(=O)c1ccc(Oc2cccc(C(F)(F)F)c2)cc1)c1ccc(Cl)c(Cl)c1 (stereo not shown) [Example 28, N-(1-(3,4-dichlorophenyl)-2-(dimethylamino)ethyl)-4-(3-(trifluoromethyl)phenoxy)benzenesulfonamide] yielded a GI50 of 14.4 µM. With Nc1cc(S(=O)(=O)NC(CN2CCNCC2)c2ccc(Cl)cc2)ccc1OC(F)(F)F (stereo not shown) [Example 23, 3-amino-N-(1-(4-chlorophenyl)-2-(piperazin-1-yl)ethyl)-4-(trifluoromethoxy)benzenesulfonamide] the GI50 was 30.8 µM. CC(C)Oc1ccc(S(=O)(=O)NCC2(c3ccccc3)CC2(C)C)cn1 (stereo not shown) [Example 29, N-((2,2-dimethyl-1-phenylcyclopropyl)methyl)-6-isopropoxypyridine-3-sulfonamide] was tested, and the GI50 was 78.7 µM. Molecule O=S(=O)(NC(c1ccccc1)C1CCNCC1)c1ccc(OC(F)(F)F)cc1 (stereo not shown) [Example 10, N-(phenyl(piperidin-4-yl)methyl)-4-(trifluoromethoxy)benzenesulfonamide] has a GI50 of 20.5 µM. Work on CC(C)Oc1ccc(S(=O)(=O)N[C@@H](c2ccc(Cl)cc2)C2CCNCC2)cn1 [Example 16, (R)-N-((4-chlorophenyl)(piperidin-4-yl)methyl)-6-isopropoxypyridine-3-sulfonamide] yielded a GI50 of 23.4 µM. FC(F)(F)Oc1ccc(-c2cnn(C3(c4ccccc4)CCNC3)c2)cc1 (stereo not shown) [Example 37, 1-(3-phenylpyrrolidin-3-yl)-4-(4-(trifluoromethoxy)phenyl)-1H-pyrazole] showed a GI50 of 30.5 µM. For O=S(=O)(NC1(c2cc(Cl)ncc2Cl)CCNCC1)c1ccc(OC(F)(F)F)cc1 [Example 9, N-(4-(2,5-dichloropyridin-4-yl)piperidin-4-yl)-4-(trifluoromethoxy)benzenesulfonamide], the GI50 was 28.8 µM. O=C(NC1(c2ccc(Cl)cc2)CCNC1)c1ccc(OC(F)(F)F)cc1 (stereo not shown) [Example 33, N-(3-(4-chlorophenyl)pyrrolidin-3-yl)-4-(trifluoromethoxy)benzamide] showed a GI50 of 23.3 µM. O=S(=O)(N[C@H](CN1CCC[C@H](F)C1)c1ccc(F)cc1)c1ccc(OC(F)(F)F)cc1 [Example 26, N-((S)-1-(4-fluorophenyl)-2-((S)-3-fluoropiperidin-1-yl)ethyl)-4-(trifluoromethoxy)benzenesulfonamide] was tested, and the GI50 was 47.5 µM. For CN(C)CC(NC(=O)c1ccc(OC(F)(F)F)cc1)c1ccc(Cl)c(Cl)c1 (stereo not shown) [Example 31, N-(1-(3,4-dichlorophenyl)-2-(dimethylamino)ethyl)-4-(trifluoromethoxy)benzamide], the GI50 was 41.9 µM. For FC(F)(F)Oc1ccc(-c2cn(C3(c4ccc(Cl)cc4)CCNC3)cn2)cc1 (stereo not shown) [Example 36, 1-(3-(4-chlorophenyl)pyrrolidin-3-yl)-4-(4-(trifluoromethoxy)phenyl)-1H-imidazole], the GI50 was 25.2 µM. CN(C)CC(NC(=O)c1ccc(OC(F)(F)F)c([N+](=O)[O-])c1)c1ccc(Cl)c(Cl)c1 (stereo not shown) [Example 32, N-(1-(3,4-dichlorophenyl)-2-(dimethylamino)ethyl)-3-nitro-4-(trifluoromethoxy)benzamide] showed a GI50 of 2.1 µM. CNc1cc(S(=O)(=O)NC2(c3ccc(Cl)cc3)CCNCC2)ccc1OC(F)(F)F [Example 8, N-(4-(4-chlorophenyl)piperidin-4-yl)-3-(methylamino)-4-(trifluoromethoxy)benzenesulfonamide] showed a GI50 of 25.2 µM. For O=S(=O)(NC1(c2cc(F)cc(F)c2)CCNCC1)c1ccc(OC(F)(F)F)cc1 [Example 2, N-(4-(3,5-difluorophenyl)piperidin-4-yl)-4-(trifluoromethoxy)benzenesulfonamide], the GI50 was 15.5 µM. With CN(C)CC(c1ccc(Cl)c(Cl)c1)n1cc(-c2ccc(OC(F)(F)F)cc2)cn1 (stereo not shown) [Example 34, 2-(3,4-dichlorophenyl)-N,N-dimethyl-2-(4-(4-(trifluoromethoxy)phenyl)-1H-pyrazol-1-yl)ethan-1-amine] the GI50 was 54.6 µM. O=S(=O)(NC1(c2ccc(Cl)nc2)CCNCC1)c1ccc(OC(F)(F)F)cc1 [Example 3, N-(4-(6-chloropyridin-3-yl)piperidin-4-yl)-4-(trifluoromethoxy)benzenesulfonamide] gave a GI50 of 69.9 µM. O=S(=O)(N[C@H](CN1CC(N2CCC2)C1)c1ccc(F)cc1)c1ccc(OC(F)(F)F)cc1 [Example 27, (S)-N-(2-([1,3′-biazetidin]-1′-yl)-1-(4-fluorophenyl)ethyl)-4-(trifluoromethoxy)benzenesulfonamide] showed a GI50 of 24.4 µM. In the case of O=S(=O)(Nc1ccc(OC(F)(F)F)cc1)C1(c2ccccc2)CCNCC1 [Example 38, 4-phenyl-N-(4-(trifluoromethoxy)phenyl)piperidine-4-sulfonamide], the GI50 is reported as 23 µM. Molecule O=S(=O)(N[C@@H](c1ccc(Cl)cc1)C1CCNCC1)c1ccc(OC(F)(F)F)cc1 [Example 13, (R)-N-((4-chlorophenyl)(piperidin-4-yl)methyl)-4-(trifluoromethoxy)benzenesulfonamide] has a GI50 of 10 µM. CC(C)Oc1ccc(S(=O)(=O)N[C@H](c2ccc(Cl)cc2)C2CCNCC2)cn1 [Example 17, (S)-N-((4-chlorophenyl)(piperidin-4-yl)methyl)-6-isopropoxypyridine-3-sulfonamide] showed a GI50 of 26.4 µM. CC(C)Oc1ccc(S(=O)(=O)NC2(c3ccc(F)c(F)c3)CCNCC2)cn1 [Example 7, N-(4-(3,4-difluorophenyl)piperidin-4-yl)-6-isopropoxypyridine-3-sulfonamide] gave a GI50 of 36.8 µM.
